In ChEMBL document CHEMBL3885881, “DrugMatrix”:

Species on record: Rattus norvegicus
Assay: DrugMatrix - Regimen: Daily Repeat
Format: toxicity, organism-based, Sprague-Dawley
Design: regimen Daily Repeat, gender Male, age 6-8 weeks
Conditions: in vivo, po, route oral GAVAGE, vehicle 100 % WATER; for ABSOLUTE BASOPHIL / ABSOLUTE EOSINOPHIL / ABSOLUTE LYMPHOCYTE / ABSOLUTE MONOCYTE / ABSOLUTE SEGMENTED NEUTROPHIL / BASOPHIL / EOSINOPHIL / ERYTHROCYTE COUNT / HEMATOCRIT / HEMOGLOBIN / LEUKOCYTE COUNT / LYMPHOCYTE / MEAN CORPUSCULAR HEMOGLOBIN / MEAN CORPUSCULAR HEMOGLOBIN CONCENTRATION / MEAN CORPUSCULAR VOLUME / MONOCYTE / NEUTROPHIL / NUCLEATED RED BLOOD CELLS: tissue Blood; for ALANINE AMINOTRANSFERASE / ALKALINE PHOSPHATASE / ASPARTATE AMINOTRANSFERASE / BLOOD UREA NITROGEN / CARBON DIOXIDE / CHLORIDE / CHOLESTEROL / CREATINE PHOSPHOKINASE / CREATININE / GLUCOSE / LACTATE DEHYDROGENASE / LIPASE / PHOSPHORUS / POTASSIUM / SODIUM / TOTAL BILIRUBIN / TOTAL PROTEIN / URIC ACID: tissue Plasma
[1] = 0 mg/kg, 72 h, dose level Control, time 3 day
[2] = 0 mg/kg, 120 h, dose level Control, time 5 day
[3] = 18 mg/kg, 72 h, dose level Low, time 3 day

CN(C)CCCN1c2ccccc2Sc2ccc(Cl)cc21 [CHLORPROMAZINE]
ABSOLUTE BASOPHIL [1]: 0 CELLS/uL
ABSOLUTE EOSINOPHIL [1]: 108.67 CELLS/uL
ABSOLUTE LYMPHOCYTE [1]: 10696 CELLS/uL
ABSOLUTE MONOCYTE [1]: 216.67 CELLS/uL
ABSOLUTE SEGMENTED NEUTROPHIL [1]: 1045.33 CELLS/uL
BASOPHIL [1]: 0%
EOSINOPHIL [1]: 1%
ERYTHROCYTE COUNT [1]: 5.87 x10E6/uL
HEMATOCRIT [1]: 38.5%
HEMOGLOBIN [1]: 13.6 G/DL
LEUKOCYTE COUNT [1]: 12.07 x10E3/uL
LYMPHOCYTE [1]: 88.33%
MEAN CORPUSCULAR HEMOGLOBIN [1]: 23.47 pg
MEAN CORPUSCULAR HEMOGLOBIN CONCENTRATION [1]: 35.7 G/DL
MEAN CORPUSCULAR VOLUME [1]: 65.63 fL
MONOCYTE [1]: 2%
NEUTROPHIL [1]: 8.67%
NUCLEATED RED BLOOD CELLS [1]: 0 /100WBC
ALANINE AMINOTRANSFERASE [1]: 60.67 u/L
ALKALINE PHOSPHATASE [1]: 377.67 u/L
ASPARTATE AMINOTRANSFERASE [1]: 85.33 u/L
BLOOD UREA NITROGEN [1]: 15 mg/dL
CARBON DIOXIDE [1]: 37 mmol/L
CHLORIDE [1]: 97.67 MEQ/L
CHOLESTEROL [1]: 70.67 mg/dL
CREATINE PHOSPHOKINASE [1]: 361.67 u/L
CREATININE [1]: 0.18 mg/dL
GLUCOSE [1]: 154 mg/dL
LACTATE DEHYDROGENASE [1]: 99 u/L
LIPASE [1]: 12.67 u/L
PHOSPHORUS [1]: 9.53 mg/dL
POTASSIUM [1]: 5.55 MEQ/L
SODIUM [1]: 143.1 MEQ/L
TOTAL BILIRUBIN [1]: 0.2 mg/dL
TOTAL PROTEIN [1]: 5.97 G/DL
URIC ACID [1]: 0.77 mg/dL
ABSOLUTE BASOPHIL [2]: 0 CELLS/uL
ABSOLUTE EOSINOPHIL [2]: 0 CELLS/uL
ABSOLUTE LYMPHOCYTE [2]: 9535 CELLS/uL
ABSOLUTE MONOCYTE [2]: 182 CELLS/uL
ABSOLUTE SEGMENTED NEUTROPHIL [2]: 783 CELLS/uL
BASOPHIL [2]: 0%
EOSINOPHIL [2]: 0%
ERYTHROCYTE COUNT [2]: 5.35 x10E6/uL
HEMATOCRIT [2]: 34.17%
HEMOGLOBIN [2]: 13.17 G/DL
LEUKOCYTE COUNT [2]: 10.5 x10E3/uL
LYMPHOCYTE [2]: 89.67%
MEAN CORPUSCULAR HEMOGLOBIN [2]: 24.67 pg
MEAN CORPUSCULAR HEMOGLOBIN CONCENTRATION [2]: 38.57 G/DL
MEAN CORPUSCULAR VOLUME [2]: 63.9 fL
MONOCYTE [2]: 1.67%
NEUTROPHIL [2]: 8.67%
NUCLEATED RED BLOOD CELLS [2]: 0 /100WBC
ALANINE AMINOTRANSFERASE [2]: 46.67 u/L
ALKALINE PHOSPHATASE [2]: 343.67 u/L
ASPARTATE AMINOTRANSFERASE [2]: 71 u/L
BLOOD UREA NITROGEN [2]: 11.67 mg/dL
CARBON DIOXIDE [2]: 27 mmol/L
CHLORIDE [2]: 105.33 MEQ/L
CHOLESTEROL [2]: 70.67 mg/dL
CREATINE PHOSPHOKINASE [2]: 208.67 u/L
CREATININE [2]: 0.1 mg/dL
GLUCOSE [2]: 161.33 mg/dL
LACTATE DEHYDROGENASE [2]: 58 u/L
LIPASE [2]: 9.33 u/L
PHOSPHORUS [2]: 12.7 mg/dL
POTASSIUM [2]: 5.59 MEQ/L
SODIUM [2]: 147.1 MEQ/L
TOTAL BILIRUBIN [2]: 0.17 mg/dL
TOTAL PROTEIN [2]: 5.97 G/DL
URIC ACID [2]: 0.73 mg/dL
ABSOLUTE BASOPHIL [3]: 0 CELLS/uL
ABSOLUTE EOSINOPHIL [3]: 0 CELLS/uL
ABSOLUTE LYMPHOCYTE [3]: 8093.33 CELLS/uL
ABSOLUTE MONOCYTE [3]: 80.67 CELLS/uL
ABSOLUTE SEGMENTED NEUTROPHIL [3]: 392.67 CELLS/uL
BASOPHIL [3]: 0%
EOSINOPHIL [3]: 0%
ERYTHROCYTE COUNT [3]: 5.16 x10E6/uL
HEMATOCRIT [3]: 34.47%
HEMOGLOBIN [3]: 13.4 G/DL
LEUKOCYTE COUNT [3]: 8.57 x10E3/uL
LYMPHOCYTE [3]: 94.33%
MEAN CORPUSCULAR HEMOGLOBIN [3]: 25.97 pg
MEAN CORPUSCULAR HEMOGLOBIN CONCENTRATION [3]: 38.87 G/DL
MEAN CORPUSCULAR VOLUME [3]: 66.8 fL
MONOCYTE [3]: 1%
NEUTROPHIL [3]: 4.67%
NUCLEATED RED BLOOD CELLS [3]: 0 /100WBC
ALANINE AMINOTRANSFERASE [3]: 60.67 u/L
ALKALINE PHOSPHATASE [3]: 286 u/L
ASPARTATE AMINOTRANSFERASE [3]: 101 u/L
BLOOD UREA NITROGEN [3]: 15 mg/dL
CARBON DIOXIDE [3]: 38 mmol/L
CHLORIDE [3]: 98 MEQ/L
CHOLESTEROL [3]: 65.67 mg/dL
CREATINE PHOSPHOKINASE [3]: 499.33 u/L
CREATININE [3]: 0.32 mg/dL
GLUCOSE [3]: 131 mg/dL
LACTATE DEHYDROGENASE [3]: 79 u/L
LIPASE [3]: 10 u/L
PHOSPHORUS [3]: 8.37 mg/dL
POTASSIUM [3]: 5.57 MEQ/L
SODIUM [3]: 142.3 MEQ/L
TOTAL BILIRUBIN [3]: 0.23 mg/dL
TOTAL PROTEIN [3]: 5.97 G/DL
